{"source": "patent US8481727B2", "about": "“Crystals of hydrochloride of pyridazin-3(2H)-one compound and process for production of same” (Nissan Chemical Industries, Ltd., priority 2008, dated 2013)", "experiment": "Dissolution test, paddle method in Japanese Pharmacopoeia (Test Example 1)", "format": "physicochemical", "settings": "about 10 mg in 900 ml test fluid, 50 rpm; dissolution test first fluid (pH 1.2) and second fluid (pH 6.8); sampling at 10, 30, 60 and 120 minutes; UV measurement; compared with A-form crystal", "protocol": "About 10 mg of each of A-form crystal (Form A) obtained in Example 1, B-form crystal (Form B) obtained in Example 2 and H-form crystal (Form H) obtained in Example 3 was sampled, and a test was carried out at 50 rpm by the dissolution test method paddle method in Japanese Pharmacopoeia using 900 ml of a test fluid. Upon expiration of 10 minutes, 30 minutes, 60 minutes and 120 minutes after initiation of the test, sampling was carried out, and UV measurements were carried out, whereupon the dissolution ratios were calculated. Here, as the dissolution tester, NTR-VS6P manufactured by TOYAMA SANGYO CO., LTD. was used; as the spectrophotometer, UV-2400PC manufactured by Shimadzu Corporation was used; and as the test fluid, the dissolution test first fluid (pH 1.2) and second fluid (pH 6.8) were used. The results are shown in FIGS. 3 and 4 (the ordinate represents the dissolution ratio (%), and the abscissa represents the dissolution time (minutes)).", "data": [{"molecule": "Cl.O=c1[nH]nc(OCCCc2ccc(Cl)cc2)c(NCc2cccnc2)c1Br", "note": "[B-form crystal, 4-bromo-6-(3-(4-chlorophenyl)propoxy)-5-(pyridin-3-ylmethylamino)pyridazin-3(2H)-one mono-hydrochloride]", "values": [{"measurement": "solubility (dissolution ratio)", "result": "superior to A-form crystal in solubility"}]}]}
